# Data from patent US20240217983A1, “GPR119 AGONISTS” (Kallyope, Inc., priority 2021, published 2024).
# Target: T1, human GPR119 (hGPR119) (Homo sapiens, UniProt Q8TDV5)
# T1 construct: expressed in transfected cells
# T1 sequence (Q8TDV5 1-335): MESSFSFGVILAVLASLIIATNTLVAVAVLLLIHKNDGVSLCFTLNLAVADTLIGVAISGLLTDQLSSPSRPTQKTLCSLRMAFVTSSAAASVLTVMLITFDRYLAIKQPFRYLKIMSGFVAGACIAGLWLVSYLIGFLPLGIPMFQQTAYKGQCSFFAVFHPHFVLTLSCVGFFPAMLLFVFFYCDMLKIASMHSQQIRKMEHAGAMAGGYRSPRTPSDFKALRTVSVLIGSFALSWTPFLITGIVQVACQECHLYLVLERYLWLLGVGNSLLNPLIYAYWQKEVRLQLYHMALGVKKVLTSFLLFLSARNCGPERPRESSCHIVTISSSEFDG
# Assay: cAMP accumulation assay (Cisbio cAMP Gs dynamic HTRF kit) in CHO-K1 cells stably expressing human GPR119
# Type: cell-based
# Conditions: 4-parameter fit; for Emax: 1 h, % activity normalized to Max and Min controls; for EC50: 60 minutes at 37° C.
# Procedure, shortened: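 Read-out is HTRF 665/620 nm ratio after 1 h detection at ambient temperature, converted to % activity against positive and negative controls, EC50 and Max activity by 4-parameter fit. Compounds were titrated onto ~10,000 thawed hGPR119-CHO-K1 cells/well for 60 min at 37° C/5% CO2.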
SMILES,Emax [%],EC50 [nM]
"O=C(Cc1ccc(OCCCC2CCN(c3ncc(Cl)cn3)CC2)cc1F)N1CCC2(CC1)CN(C[C@H](O)[C@@H](O)[C@H](O)[C@H](O)CO)C2 [Example 70, 2-(4-(3-(1-(5-chloropyrimidin-2-yl)piperidin-4-yl)propoxy)-2-fluorophenyl)-1-(2-((2S,3R,4R,5R)-2,3,4,5,6-pentahydroxyhexyl)-2,7-diazaspiro[3.5]nonan-7-yl)ethan-1-one]",100 to 130,100 to 1000
"O=C(Cc1ccc(OCCCC2CCN(c3ncc(Cl)cn3)CC2)cc1F)N1CCN(C[C@H](O)[C@H](O)[C@H](O)CO)CC1 [Example 71, 2-(4-(3-(1-(5-chloropyrimidin-2-yl)piperidin-4-yl)propoxy)-2-fluorophenyl)-1-(4-((2S,3S,4R)-2,3,4,5-tetrahydroxypentyl)piperazin-1-yl)ethan-1-one]",100 to 130,≤ 100
"O=C(Cc1ccc(OCCCC2CCN(c3ncc(Cl)cn3)CC2)cc1F)N1CCC2(CN(C[C@H](O)[C@H](O)[C@H](O)CO)CCO2)C1 (stereo partly drawn) [Example 72, 2-(4-(3-(1-(5-chloropyrimidin-2-yl)piperidin-4-yl)propoxy)-2-fluorophenyl)-1-(9-((2S,3S,4R)-2,3,4,5-tetrahydroxypentyl)-6-oxa-2,9-diazaspiro[4.5]decan-2-yl)ethan-1-one]",100 to 130,≤ 100
"O=C(Cc1ccc(OCCCC2CCN(c3ncc(Cl)cn3)CC2)cc1F)N1CCC2(CN(C[C@H](O)[C@@H](O)[C@H](O)[C@H](O)CO)CCO2)C1 (stereo partly drawn) [Example 73, 2-(4-(3-(1-(5-chloropyrimidin-2-yl)piperidin-4-yl)propoxy)-2-fluorophenyl)-1-(9-((2S,3R,4R,5R)-2,3,4,5,6-pentahydroxyhexyl)-6-oxa-2,9-diazaspiro[4.5]decan-2-yl)ethan-1-one]",100 to 130,≤ 100
"O=C(Cc1ccc(OCCCC2CCN(c3ncc(Cl)cn3)CC2)cc1F)N1CCC2(CCCN2C[C@H](O)[C@H](O)[C@H](O)CO)C1 (stereo partly drawn) [Example 74, 2-(4-(3-(1-(5-chloropyrimidin-2-yl)piperidin-4-yl)propoxy)-2-fluorophenyl)-1-(1-((2S,3S,4R)-2,3,4,5-tetrahydroxypentyl)-1,7-diazaspiro[4.4]nonan-7-yl)ethan-1-one]",≥ 130,≤ 100
"O=C(Cc1ccc(OCCCC2CCN(c3ncc(Cl)cn3)CC2)cc1F)N1CCC2(CCCC2NC[C@H](O)[C@H](O)[C@H](O)CO)C1 (stereo partly drawn) [Example 76, 2-(4-(3-(1-(5-chloropyrimidin-2-yl)piperidin-4-yl)propoxy)-2-fluorophenyl)-1-(6-(((2S,3S,4R)-2,3,4,5-tetrahydroxypentyl)amino)-2-azaspiro[4.4]nonan-2-yl)ethan-1-one]",≥ 130,≤ 100
"O=C(Cc1ccc(OCCCC2CCN(c3ncc(Cl)cn3)CC2)cc1F)N1CC2(CCC2NC[C@H](O)[C@H](O)[C@H](O)CO)C1 (stereo partly drawn) [Example 78, 2-(4-(3-(1-(5-chloropyrimidin-2-yl)piperidin-4-yl)propoxy)-2-fluorophenyl)-1-(5-(((2S,3S,4R)-2,3,4,5-tetrahydroxypentyl)amino)-2-azaspiro[3.3]heptan-2-yl)ethan-1-one]",≥ 130,≤ 100
"O=C(Cc1ccc(OCCCC2CCN(c3ncc(Cl)cn3)CC2)cc1F)N1CCOC2(CCN(C[C@H](O)[C@H](O)[C@H](O)CO)C2)C1 (stereo partly drawn) [Example 80, 2-(4-(3-(1-(5-chloropyrimidin-2-yl)piperidin-4-yl)propoxy)-2-fluorophenyl)-1-(2-((2S,3S,4R)-2,3,4,5-tetrahydroxypentyl)-6-oxa-2,9-diazaspiro[4.5]decan-9-yl)ethan-1-one]",100 to 130,≤ 100
"O=C(Cc1ccc(OCCCC2CCN(c3ncc(Cl)cn3)CC2)cc1F)N1CCOC2(CCN(C[C@H](O)[C@@H](O)[C@H](O)[C@H](O)CO)C2)C1 (stereo partly drawn) [Example 81, 2-(4-(3-(1-(5-chloropyrimidin-2-yl)piperidin-4-yl)propoxy)-2-fluorophenyl)-1-(2-((2S,3R,4R,5R)-2,3,4,5,6-pentahydroxyhexyl)-6-oxa-2,9-diazaspiro[4.5]decan-9-yl)ethan-1-one]",100 to 130,≤ 100
